In experiment [1] the target is T1, human PCNA recombinant protein (Homo sapiens, UniProt P12004).
T1 construct: The full length human PCNA; made in house; host or cells: Escherichia coli BL21(DE3)
Nature of the experiment: Fluorescent polarization assay: competition with 5-FAM-labeled PL peptide for PCNA. Conditions: Table 2; inhibition of FAM-PL peptide binding to PCNA; read-out: IC50. Format: binding. The text has this:
To determine the binding of the disclosed compounds to the human PCNA recombinant protein, a fluorescence polarization assay was employed. The assay is based on competition between a fluorescent tracer and increasing amounts of competing compound, i.e. a disclosed compound, determined as fluorescence polarization intensity (mP). The fluorescent tracer was 5-carboxyfluorescein (5-FAM) labeled PL peptide (“FAM-PL”). […] PCNA was a recombinant protein purified using standard methods known to one skilled in the art using an expression construct obtained from Dr. Toshiki Tsurimoto, Kyusyu University, Japan.
The volumes of PCNA and FAM-PL were adjusted to ensure that the final concentration of PCNA was 200 nM and FAM-PL was 10 nM. Assays were carried out in 384 well plates in a total volume of about 20-30 μL. […] Fluorescence measurements were made immediately after dilution in the assay plate. […] FP values (P) were calculated in millipolarization units (mP),
where I∥ and I⊥ are the emission intensities recorded, respectively, in the parallel and perpendicular directions relative to the plane of excitation polarization, after background intensity correction. G-factor values (G) for the fluorescein spectral window were measured using 1 nM fluorescein.
Alternatively, the fluorescent polarization assay can be carried out as described in the following. […] Briefly, 20 μl of the assay solution was transferred into each well of a black 384-well plate using Wellmate (Matrix). […] The negative control in each plate was DMSO, whereas the positive control was unlabeled PL-peptide as a self-competitor. […] FP values were calculated in millipolarization units. All data processing was performed using in-house programs in the Pipeline Pilot (Accelrys, version 7.0.1). The quality of the primary screen was assessed by Z-prime and other screening quality metrics.

Experiment [2] concerns the target PCNA/full-length p21 interaction (Homo sapiens, UniProt P12004). Nature of the experiment: Pull-down competition assay: PCNA captured by immobilized full-length p21-His6. Conditions: FIG. 5, gel electrophoresis.
Procedure: A H is protein interaction pull-down kit (Thermo Scientific) was used, in which a 4:1 mixture of TBS and lysis buffer provided in the kit was used as the buffer throughout. For immobilizing p21, 100 μg of p21His6 was incubated overnight at 4° C. with 25 μl (50% suspension) of prewashed cobalt chelate resin in 500 μl of the buffer and washed with the buffer four times. […] After the mixture was incubated overnight at 4° C., the resin was washed with buffer four times, and the bound proteins were eluted with 100 μl of the buffer containing 400 mM imidazole. Each 10 μl of the eluted samples was analyzed by SDS-PAGE with Oriole fluorescent gel stain (BioRad) and a Fluor Chem imager (Alpha Innotech).
The test system of experiment [3] is U2OS cells. The experiment is described as follows: U2OS cell viability with cisplatin and test compound (AlamarBlue, 4 days). Conditions: cisplatin alone up to 10 μM, FIG. 21. Format: cell-based. On the procedure:
U2OS cells were cultured in DMEM in a 384-well plate (3000 cells/20 μL per well), treated with indicated dilution of cisplatin (see FIG. 21) and each indicated test compound (15 μM; 20 μL per well in DMEM), and cultured for 4-days. AlamarBlue reagent (Invitrogen, 4 μL per well) was added and signals were read per manufacturer's recommendation. Signals of wells contains no cells and cells with no drugs served as 0% and 100% viability, respectively.
(Alamar Blue is a resazurin reagent that responds to reducing activity.)

Experiment [4] has as its system U2OS cells. Nature of the experiment: γH2AX staining by flow cytometry, T2AA and cisplatin. Conditions: single agent, 18 h, FIG. 28A. (Flow cytometry measures light scatter and fluorescence of single cells or particles in a stream.)
Procedure: For γH2AX staining, cells were cultured at 4×10^5 cells/well of 12-well plates in 1 ml of medium, treated with drugs as indicated, trypsin-lifted and stained by using the FlowCellect H2A.X DNA Damage kit (FCCH025142, Millipore) according to the manufacturer's recommendations. All samples were filtered through 40-μm nylon mesh prior to running flow cytometry.
NT, no treatment. Error bars, S.D.
In experiment [5] the test system is U2OS cells. Nature of the experiment: Growth of cells after treatment with cisplatin and T2AA and release (Alamar Blue). The note with it: cisplatin alone up to 10 μM, FIG. 28B.
Procedure: The cells were treated with drugs as indicated in a black (transparent flat bottom) 384-well or 96-well plate. Cellular viability was determined by using Alamar Blue reagent (Invitrogen) on an EnVision plate reader according to the manufacturer's recommendations and normalized with signal from wells of DMSO treatment=100% and of no cells=0%.
Viability of the cells was measured by Alamar Blue reagent, and signals were normalized with those of no cell well (0%) and cells with no drugs (100%). NT, no treatment. Error bars, S.D.
Experiment [6] deals with HeLa cells. Nature of the experiment: Cisplatin-induced DNA double-strand breaks (gH2Ax positive cells) by flow cytometry. Conditions: with cisplatin, dose-dependent, FIG. 7. Format: cell-based.
In experiment [7] the test system is DNA polymerase present in a CHO lysate. The experiment is described as follows: In vitro translesion DNA synthesis past a cisplatin adduct. Format: biochemical. The note with it: FIG. 8. The text has this: In a further experiment, an in vitro […] DNA polymerization assay was used (e.g. see Hoffman, et al., Proc Natl Acad Sci USA (1996) 93(24), 13766-9). The assay measures the ability of DNA polymerase present in a CHO lysate to catalyze synthesis of a DNA strand past a cisplatin adduct in an oligonucleotide template. The data in FIG. 8 outline the assay approach in the upper panel, and the gel electrophoresis data are shown in the lower panel. […] The negative control lanes (right side of gel image showing the levels of DMSO contributed by the compound) show not effect on DNA synthesis.

Experiment [8] has as its system HeLa cells. The experiment is described as follows: CellTiter-Glo cell viability assay with cisplatin. Format: cell-based. Conditions: increasing concentration of compound, 24 or 48 hours, FIG. 9. The procedure: Cell viability was determined using CellTiter-Glo® Luminescent Cell Viability Assay (Promega Corporation, Madison, Wis.). Cell viability assays were carried out in 384-well plates after cells were treated for 24 or 48 hours with the disclosed compounds.
(ATP-based viability assays read luminescence as a measure of living cells.)

The text below walks through data of patent publication US20140288077A1, “SUBSTITUTED 4-PHENOXYPHENOL ANALOGS AS MODULATORS OF PROLIFERATING CELL NUCLEAR ANTIGEN ACTIVITY” (ST. JUDE CHILDREN'S RESEARCH HOSPITAL, priority 2011, published 2014).

The structures appear in SMILES notation. pIC50: −log10 of the molar value.

T1 sequence (P12004 whole entry): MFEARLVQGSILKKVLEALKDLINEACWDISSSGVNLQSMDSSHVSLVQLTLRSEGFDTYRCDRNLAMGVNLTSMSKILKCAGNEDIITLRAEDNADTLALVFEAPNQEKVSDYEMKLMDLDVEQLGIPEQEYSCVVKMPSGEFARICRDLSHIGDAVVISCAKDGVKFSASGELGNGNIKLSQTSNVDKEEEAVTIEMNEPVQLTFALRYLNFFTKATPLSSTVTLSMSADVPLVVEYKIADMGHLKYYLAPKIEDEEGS
Chain of PCNA/full-length p21 interaction (P12004 whole entry): as above

Usually pIC50 stands for −log10 of the IC50, conventionally taken in molar units. Take `CS(=O)(=O)NC(=O)CCc1cc(I)c(Oc2ccc(O)cc2)c(I)c1` [MLAE-038, 3-(4-(4-hydroxyphenoxy)-3,5-diiodophenyl)-N-(methylsulfonyl)propanamide]: in experiment [1], the negative logarithm of the IC50 (pIC50) was 4.70. Moreover, in experiment [2], the “level of PCNA captured by His6 p21” value is on record as “decreased significantly”.

Regarding `N.N.[Cl][Pt][Cl]` [cisplatin, reference compound], the U2OS cell growth entry in the experiment on U2OS cells [3] and in the experiment with U2OS cells [5] was “not significantly affected” each time. Moreover, the “γH2AX level (DNA damage response)” value in the experiment on U2OS cells [4] was “significantly induced γH2AX”.

Regarding `N[C@H](CO)Cc1cc(I)c(Oc2ccc(O)cc2)c(I)c1` [(S)-T2AA, (S)-4-(4-(2-amino-3-hydroxypropyl)-2,6-diiodophenoxy)phenol], the “cisplatin-induced DNA double-strand breaks (gH2Ax positive cells)” value with HeLa cells [6] is “at least a doubling”. Moreover, the “DNA synthesis past the cisplatin adduct (TLS product)” value in experiment [7] is reported as “inhibits”. Moreover, the “cell viability for a given concentration of cisplatin” value in the experiment on HeLa cells [8] is “greater loss of cell viability”.

Turning to `COc1ccc(Oc2c(I)cc(CC(=O)N3CCNC(=O)C3)cc2I)cc1` [MLAE-045, 4-(2-(3,5-Diiodo-4-(4-methoxyphenoxy)phenyl)acetyl)piperazin-2-one], in experiment [1], the pIC50 was 5.68.

`O=C(CCc1cc(I)c(Oc2ccc(O)c(C(=O)Nc3ccccc3)c2)c(I)c1)NCCO` [MLAF-007, 2-Hydroxy-5-(4-(3-((2-hydroxyethyl)amino)-3-oxopropyl)-2,6-diiodophenoxy)-N-phenylbenzamide]: the pIC50 in experiment [1] is 6.40.

As to `NC[C@@H](N)Cc1cc(I)c(Oc2ccc(O)cc2)c(I)c1` [SWUA_017, (S)-4-(4-(2,3-diaminopropyl)-2,6-diiodophenoxy)phenol], in experiment [1], the pIC50 was 5.60.

For the molecule `O=C(CCc1cc(I)c(Oc2ccc(O)cc2)c(I)c1)N1CCCCC1` [MLAE-041, 3-(4-(4-hydroxyphenoxy)-3,5-diiodophenyl)-1-(piperidin-1-yl)propan-1-one], in experiment [1], the pIC50 is 5.62.

In the case of `O=C(CCc1ccc(I)c(Oc2ccc(O)cc2)c1I)NCCO` [MLAF-051], the negative-log IC50 (pIC50) in experiment [1] is 5.02.

For `O=C(Cc1cc(I)c(Oc2ccc(O)c(I)c2)c(I)c1)NCCc1ccccc1` [MLAE-029-3, 2-(4-(4-hydroxy-3-iodophenoxy)-3,5-diiodophenyl)-N-phenethylacetamide], the pIC50 in experiment [1] is below 4.30.

As to `CCNC(=O)Cc1cc(I)c(Oc2ccc(O)cc2)c(I)c1` [MLAG-066-3, N-ethyl-2-(4-(4-hydroxyphenoxy)-3,5-diiodophenyl)acetamide], the pIC50 in experiment [1] is 5.18.

Turning to `N[C@H](CNC(=O)NCc1ccccc1)Cc1cc(I)c(Oc2ccc(O)cc2)c(I)c1` [MLAF-085, (S)-1-(2-amino-3-(4-(4-hydroxyphenoxy)-3,5-diiodophenyl)propyl)-3-benzylurea], in experiment [1], the negative-log IC50 (pIC50) is 6.00.
